Like-named read-outs stand apart in the source and are kept apart here.
Columns and labels:
H1975 tumours = details: H1975 xenograft, q3dx4, intraperitoneal; for Drug related deaths: lactate buffer pH 4; for Weight Loss Nadir (%): mean nadir relative to day 0 weight; on all read-outs here: test concentration or dose not given here
SKOV3 cells = assay: Inhibition of cellular proliferation (sulforhodamine B staining); details: for SKOV3 HCR (Hypoxic Cytotoxicity Ratio): fold change in intra-experimental IC50, 4 hours anoxia relative to oxic only
A431 cells = assay: as above; details: for A431 HCR (Hypoxic Cytotoxicity Ratio): fold change in intra-experimental IC50, 4 hours anoxia relative to oxic only
H1975 cells = assay: as above; details: for H1975 HCR (Hypoxic Cytotoxicity Ratio): fold change in intra-experimental IC50, 4 hours anoxia relative to oxic only
A431 tumours = details: A431 xenograft, q3dx4, intraperitoneal; for Drug related deaths: lactate buffer pH 4; for TGD (Tumour Growth Delay): % increase in time to RTV4 relative to control; for Weight Loss Nadir (%): mean nadir relative to day 0 weight; on all read-outs here: test concentration or dose not given here
[1] = pulse radiolysis, determined against methylviologen
[2] = read-out: Cellular Growth Inhibition IC50 SKOV3 Anoxic, initial 4 hours of the 24 hour exposure under anoxic conditions
[3] = read-out: Cellular Growth Inhibition IC50 SKOV3 Oxic, 24 hour exposure entirely under oxic conditions, washed, further 4 days
[4] = read-out: Cellular Growth Inhibition IC50 A431 Anoxic, initial 4 hours of the 24 hour exposure under anoxic conditions
[5] = read-out: Cellular Growth Inhibition IC50 A431 Oxic, 24 hour exposure entirely under oxic conditions, washed, further 4 days
[6] = read-out: Cellular Growth Inhibition IC50 H1975 Anoxic, initial 4 hours of the 24 hour exposure under anoxic conditions
[7] = read-out: Cellular Growth Inhibition IC50 H1975 Oxic, 24 hour exposure entirely under oxic conditions, washed, further 4 days

Row | SMILES | Drug related deaths (H1975 tumours) | Weight Loss Nadir (%) (H1975 tumours) | IC50 (SKOV3 cells; [2]) | IC50 (SKOV3 cells; [3]) | A431 HCR (Hypoxic Cytotoxicity Ratio) (A431 cells) | IC50 (A431 cells; [4]) | IC50 (A431 cells; [5]) | H1975 HCR (Hypoxic Cytotoxicity Ratio) (H1975 cells) | IC50 (H1975 cells; [6]) | IC50 (H1975 cells; [7]) | SKOV3 HCR (Hypoxic Cytotoxicity Ratio) (SKOV3 cells) | Drug related deaths (A431 tumours) | TGD (Tumour Growth Delay) (A431 tumours) | Weight Loss Nadir (%) (A431 tumours) | E(1)/V 1-electron reduction potential [1]
1 | CN(C)C/C=C/C(=O)Nc1cc2c(Nc3ccc(Br)c(Br)c3)ncnc2cn1 [Compound 7, (2E)-N-[4-(3,4-dibromoanilino)pyrido[3,4-d]pyrimidin-6-yl]-4-(dimethylamino)-2-butenamide] | 1 | −4.9 ± 2.4% | 600 nM | 370 nM | 0.8 | 8 nM | 5 nM | 1.0 | 270 nM | 180 nM |  |  |  |  | 
2 | CN(C)C/C=C/C(=O)Nc1cc2c(Nc3ccc(Cl)c(Cl)c3)ncnc2cn1 [Compound 4, (2E)-N-[4-(3,4-dichloroanilino)pyrido[3,4-d]pyrimidin-6-yl]-4-(dimethylamino)-2-butenamide] | 0 | −9.7 ± 4.0% | 550 nM | 360 nM | 0.9 | 15 nM | 9 nM |  | 560 nM |  | 0.9 |  |  |  | 
3 | C#Cc1cc(Nc2ncnc3cnc(NC(=O)/C=C/C[N+](C)(C)Cc4c([N+](=O)[O-])ncn4C)cc23)ccc1Cl [Compound 21, (2E)-4-{[4-(4-chloro-3-ethynylanilino)pyrido[3,4-d]pyrimidin-6-yl]amino}-N,N-dimethyl-N-[(1-methyl-4-nitro-1H-imidazol-5-yl)methyl]-4-oxo-2-buten-1-ammonium bromide] |  |  | 1130 nM | 47000 nM |  | < 10 nM | 850 nM | 18 | 600 nM | 18000 nM |  | 0 | >250% | −4.3 ± 2.3% | 
4 | C#Cc1cc(Nc2ncnc3cnc(NC(=O)/C=C/C[N+](C)(C)Cc4c([N+](=O)[O-])ncn4C)cc23)ccc1F [Compound 20, (2E)-4-{[4-(3-ethynyl-4-fluoroanilino)pyrido[3,4-d]pyrimidin-6-yl]amino}-N,N-dimethyl-N-[(1-methyl-4-nitro-1H-imidazol-5-yl)methyl]-4-oxo-2-buten-1-ammonium bromide] | 0 | −4.4 ± 2.3% | 4400 nM | 194000 nM |  | 130 nM | 3900 nM |  | 3300 nM | 118000 nM | 15 |  |  |  | 
5 | C#Cc1cc(Nc2ncnc3cnc(NC(=O)/C=C/CN(C)C)cc23)ccc1F [Compound 8, (2E)-4-(dimethylamino)-N-[4-(3-ethynyl-4-fluoroanilino)pyrido[3,4-d]pyrimidin-6-yl]-2-butenamide] | 0 | −3.3 ± 3.0% | 1800 nM |  |  | 120 nM |  |  | 1400 nM |  |  |  |  |  | 
6 | Cn1cnc([N+](=O)[O-])c1C[N+](C)(C)C/C=C/C(=O)Nc1cc2c(Nc3ccc(Br)c(Cl)c3)ncnc2cn1.[Br-] [Compound 18, (2E)-4-{[4-(4-bromo-3-chloroanilino)pyrido[3,4-d]pyrimidin-6-yl]amino}-N,N-dimethyl-N-[(1-methyl-4-nitro-1H-imidazol-5-yl)methyl]-4-oxo-2-buten-1-ammonium bromide] |  |  | 600 nM | 13000 nM |  | 12 nM | 500 nM |  | 200 nM | 13300 nM | 24 | 0 | >250% | −4.1 ± 0.4% | −0.428 V
7 | CN(C)C/C=C/C(=O)Nc1cc2c(Nc3ccc4c(cnn4Cc4cccc(F)c4)c3)ncnc2cn1 [Compound 2, (2E)-4-(dimethylamino)-N-(4-{[1-(3-fluorobenzyl)-1H-indazol-5-yl]amino}pyrido[3,4-d]pyrimidin-6-yl)-2-butenamide] | 0 | −7.9 ± 0.6% | 900 nM |  | 1.0 | 90 nM |  |  | 1000 nM |  |  |  |  |  | 

From patent US9101632B2, “Kinase inhibitors, prodrug forms thereof and their use in therapy” (AUCKLAND UNISERVICES LIMITED, priority 2009, dated 2015)
